{"source": "patent US8623110B2", "about": "“Protein and isolated or purified amino acid product containing compositions and uses thereof” (Archer Daniels Midland Company, priority 2007, dated 2014)", "assay_type_in_all_cases": "in vivo", "key": {"weeds": {"system": "weeds", "experiment": "Pre-emergent herbicide efficacy, percent weed cover on bare soil", "settings": "compared to the untreated control (Table 13)", "method": "Herbicide efficacy of the fertilizers was evaluated with Granular Lysine (LSG), Liquid Lysine (LSL), and Ronstar G by applying them to 3 replications of 1 m×1 m plots which also included an untreated control. Plots were located in an area of known weed infestation problems. Plots were prepared prior to treatment application by rototilling and applying 3 glyphosate applications to clear up pre-existing weeds and the test was initiated with 0 percent weed in all plots. On approximately monthly intervals percent weed cover ratings were taken. All data was subject to statistical analysis and significant means were determined."}, "[1]": {"system": "'Floratam' St. Augustinegrass", "experiment": "Fertilizer efficacy on St. Augustinegrass (quality, color, clipping weight)", "settings": "St. Augustinegrass sites 1 and 2; LSG at high rate (Tables 4-7)", "method": "(§1) In another embodiment, the fertilizers of the various embodiments described herein were compared to industry standards for efficacy and phytotoxicity on St. Augustinegrass and bermudagrass. In another embodiment the experimental fertilizers were evaluated for their efficacy as a pre-emergent herbicide compared to an industry standard.\nEfficacy of the fertilizers on the St. Augustinegrass Site was evaluated by applying treatments 1-8 to 4 replications of ‘Floratam’ St. Augustinegrass. Plot size was 1 m×2 m set up as a randomized complete block. Initially Nature Safe was applied as a granular, while ammonium sulfate and remaining products were applied as split liquid treatments sprayed out using a CO2 boom sprayer set to deliver a volume of 1 gallon/1000 ft^2. After six weeks all 10 treatments were applied to the 4 replications of ‘Floratam’. Products 3-10 were again applied as split liquid treatments using a CO2 boom sprayer. Split treatments were re-applied approximately 2 weeks later. Plots were mowed at 3.0 inches before fertilizer application. Irrigation (0.15 inch) was applied following each application. Clipping samples were taken approximately monthly for dry weight (grams) determination. […] All data was subject to statistical analysis and significant means were determined."}, "bermudagrass": {"system": "bermudagrass", "experiment": "Fertilizer efficacy on bermudagrass (quality, color, clipping weight)", "settings": "LSG at high rate (Tables 8 and 9)", "method": "as §1\nEfficacy of the fertilizers on the Bermudagrass Site was evaluated by applying, treatments 1-8 to 4 replications of 1 m×2 m bermudagrass plots set up as a randomized complete block. Nature Safe was applied as a granular, while ammonium sulfate and remaining products were applied as split liquid treatments sprayed out using a CO2 boom sprayer set to deliver a volume of 1 gallon/1000 ft^2. Turfgrass ratings were taken to ensure turf quality/color uniformity.\nAfter 6 weeks all 10 treatments were applied to 4 replications of bermudagrass plots. Products 3-10 were again applied as split liquid treatments sprayed out using a CO2 boom sprayer. Split treatments were re-applied approximately 2 weeks later. Plots were mowed at 0.5 inches before fertilizer application. Irrigation (0.15 inch) was applied following application. Clipping samples were taken approximately monthly for dry weight (grams) determination. […] All data was subject to statistical analysis and significant means were determined."}}}
{"smiles": "Cl.NCCCC[C@H](N)C(=O)O", "note": "[LSG, L-lysine monohydrochloride]", "values": [{"measurement": "weed ratings (percent weed cover)", "setting": "weeds", "value": "not significantly different"}, {"measurement": "turfgrass quality and color (scale of 1-10)", "setting": "[1]", "value": "highest numerical average on many rating dates"}, {"measurement": "turfgrass quality and color (scale of 1-10)", "setting": "bermudagrass", "value": "best numerical turfgrass scores on most dates"}]}
